Assay results published in ChEMBL document CHEMBL1133097, “N-Terminal dipeptides of D(-)-penicillamine as sequestration agents for acetaldehyde” (2000).

Columns and labels:
[1] = Percent inhibition in hepatocyte culture system at 1/20 molar concentration of ethanol and lowered concentration of ethanol-derived AcH; type: functional, Rattus norvegicus
[2] = Percent inhibition in hepatocyte culture system in the presence of cyanamide at 1/20 molar concentration of ethanol and lowered concentration of ethanol-derived AcH; type: functional, Rattus norvegicus

Row | SMILES | Inhibition [1] [%] | Inhibition [2] [%]
1 | C[C@H](NC(=O)[C@H](N)C(C)(C)S)C(=O)O.Cl | 84 | –
2 | CC(C)(NC(=O)[C@H](N)C(C)(C)S)C(=O)O.Cl | – | 37
3 | CC(C)(S)[C@@H](N)C(=O)NCC(=O)O.Cl | 79 | 33
